Results on 8 compounds are retold here after PubChem BioAssay (NCI).

Structures are written as SMILES.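 All cell lines were grown in 96-well plates and treated with compound for 48 hours. At the GI50, growth is halved. TGI: total growth inhibition.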

Some test systems named below: UO-31 renal; SW-620 colon; SF-295 CNS; CCRF-CEM leukemia; NCI-H522 lung; MOLT-4 leukemia; IGROV1 ovarian; OVCAR-5 ovarian; LOX IMVI melanoma; HCT-15 colon.
What all share (assay): NCI-60 cell line screen, 48 h

Consider `O=C(c1ccco1)c1c(C(F)(F)F)nc2ccc(Cl)cc2[n+]1[O-]`, for which the GI50 was > 100 µM in the experiment with UO-31 renal; 13.4 µM in the experiment with SW-620 colon; > 100 µM in the experiment with SF-295 CNS; > 100 µM in the experiment with CCRF-CEM leukemia; 83.1 µM in the experiment on NCI-H522 lung; > 100 µM with MOLT-4 leukemia. Further, the GI50 in the experiment with IGROV1 ovarian was > 100 µM; with OVCAR-5 ovarian it was > 100 µM; in the experiment with LOX IMVI melanoma, > 100 µM; in the experiment with HCT-15 colon, 61 µM. Further, the TGI in the experiment on UO-31 renal is > 100 µM; in the experiment on SW-620 colon, 29.6 µM; in the experiment on SF-295 CNS it was > 100 µM; in the experiment on CCRF-CEM leukemia it was > 100 µM; in the experiment with NCI-H522 lung, > 100 µM; in the experiment on MOLT-4 leukemia it was > 100 µM. Besides, the TGI with IGROV1 ovarian, with OVCAR-5 ovarian, with LOX IMVI melanoma and in the experiment on HCT-15 colon was > 100 µM in each case.
On to `CCN1CCN(c2cc(C)c3cc(NC(=O)c4ccc(OC)c(OC)c4)ccc3n2)CC1`, for which the GI50 in the experiment on UO-31 renal is > 37.4 µM; with SW-620 colon it was 4.21 µM; with SF-295 CNS, 11.8 µM; with CCRF-CEM leukemia it was > 43.1 µM; with NCI-H522 lung, 0.485 µM; with MOLT-4 leukemia it was 6.21 µM. For the same compound, the GI50 in the experiment with IGROV1 ovarian is > 66.3 µM; in the experiment on OVCAR-5 ovarian, 15.7 µM; in the experiment with LOX IMVI melanoma, 9.36 µM; in the experiment on HCT-15 colon it was 3.02 µM. For the same compound, the TGI is > 73.2 µM with UO-31 renal; > 42.3 µM with SW-620 colon; 38.5 µM with SF-295 CNS; > 100 µM in the experiment with CCRF-CEM leukemia; 16.9 µM with NCI-H522 lung; 88.9 µM in the experiment on MOLT-4 leukemia. Also, the TGI with IGROV1 ovarian was > 100 µM; with OVCAR-5 ovarian it was > 100 µM; with LOX IMVI melanoma, 24.3 µM; in the experiment on HCT-15 colon, > 100 µM.
On to `O=c1oc2ccc(-c3ccc(F)cc3F)cc2c(=O)n1-c1cccc(C(F)(F)F)c1`, for which the GI50 in the experiment with UO-31 renal was 1.38 µM; in the experiment on SW-620 colon it was 2.64 µM; with SF-295 CNS, 1.78 µM; with CCRF-CEM leukemia it was 2.42 µM; in the experiment on NCI-H522 lung it was 0.343 µM; in the experiment with MOLT-4 leukemia it was 2.15 µM. Moreover, the GI50 was 1.66 µM in the experiment on IGROV1 ovarian, 4.11 µM in the experiment with OVCAR-5 ovarian, 1.61 µM in the experiment with LOX IMVI melanoma and 1.61 µM with HCT-15 colon. Also, the TGI in the experiment on UO-31 renal is 8.22 µM; in the experiment with SW-620 colon, 12.8 µM; in the experiment on SF-295 CNS, 4.14 µM; in the experiment on CCRF-CEM leukemia it was 7.85 µM; in the experiment on NCI-H522 lung, 5.61 µM; in the experiment on MOLT-4 leukemia, 4.97 µM. Further, the TGI was 22.2 µM in the experiment with IGROV1 ovarian, > 100 µM with OVCAR-5 ovarian, 5.55 µM in the experiment on LOX IMVI melanoma and 23.4 µM in the experiment on HCT-15 colon.
`CC1(C)COC(c2cccc3c2C(=O)c2cccc(Cl)c2-3)=N1`: the TGI with UO-31 renal, with SW-620 colon, in the experiment on SF-295 CNS, in the experiment on CCRF-CEM leukemia, with NCI-H522 lung and with MOLT-4 leukemia was > 100 µM in each case. Besides, the TGI in the experiment on IGROV1 ovarian, with OVCAR-5 ovarian, in the experiment on LOX IMVI melanoma and in the experiment with HCT-15 colon was > 100 µM in each case.
Consider `CC(=O)Nc1ccc(-c2csc(Nc3cccc(-c4csc(C)n4)c3)n2)cc1`, for which the GI50 was 6.73 µM in the experiment with UO-31 renal; 3.51 µM in the experiment on SW-620 colon; 0.907 µM with SF-295 CNS; > 50 µM in the experiment with CCRF-CEM leukemia; 7.72 µM with NCI-H522 lung; 3.79 µM in the experiment on IGROV1 ovarian. Besides, the GI50 was 10 µM with OVCAR-5 ovarian, 0.375 µM with LOX IMVI melanoma and 0.289 µM with HCT-15 colon. For the same compound, the TGI in the experiment with UO-31 renal is 22.8 µM; in the experiment on SW-620 colon, 49 µM; in the experiment on SF-295 CNS it was > 13.2 µM; in the experiment with CCRF-CEM leukemia it was > 50 µM; in the experiment on NCI-H522 lung it was > 28 µM; with MOLT-4 leukemia, > 50 µM. The TGI is > 30.9 µM in the experiment on IGROV1 ovarian, > 36.8 µM with OVCAR-5 ovarian, 10.1 µM with LOX IMVI melanoma and > 27.4 µM in the experiment with HCT-15 colon.
`S=c1[nH]c(=S)c2cc3ccccc3nc2[nH]1`: the GI50 was > 100 µM in the experiment with UO-31 renal; 26.8 µM in the experiment with SW-620 colon; > 100 µM in the experiment with SF-295 CNS; 5.21 µM with CCRF-CEM leukemia; 20.5 µM in the experiment with NCI-H522 lung; 4.68 µM with MOLT-4 leukemia. In addition, the GI50 was 23 µM in the experiment with IGROV1 ovarian, > 100 µM with OVCAR-5 ovarian, > 100 µM in the experiment on LOX IMVI melanoma and > 100 µM with HCT-15 colon. In addition, the TGI with UO-31 renal was > 100 µM; in the experiment with SW-620 colon, > 100 µM; in the experiment on SF-295 CNS, > 100 µM; with CCRF-CEM leukemia, > 100 µM; with NCI-H522 lung, 51.7 µM; with MOLT-4 leukemia, > 100 µM. Also, the TGI in the experiment on IGROV1 ovarian, with OVCAR-5 ovarian, in the experiment on LOX IMVI melanoma and in the experiment on HCT-15 colon was > 100 µM each time.
As for `CCC[CH2][Sn]([CH2]CCC)([O]C(=O)c1ccc(OC)c(OC)c1OC)[O][Sn]([CH2]CCC)([CH2]CCC)[O]C(=O)c1ccc(OC)c(OC)c1OC`, the GI50 in the experiment with UO-31 renal was 0.546 µM; in the experiment on SW-620 colon it was 0.0889 µM; in the experiment with SF-295 CNS it was 0.568 µM; in the experiment with CCRF-CEM leukemia, 0.0133 µM; in the experiment on NCI-H522 lung, < 0.0108 µM; with MOLT-4 leukemia it was 0.0804 µM. The GI50 in the experiment with IGROV1 ovarian is 0.891 µM; with OVCAR-5 ovarian, 1.52 µM; in the experiment with LOX IMVI melanoma it was 0.134 µM; with HCT-15 colon it was 0.175 µM. Further, the TGI in the experiment on UO-31 renal worked out at 1.18 µM; in the experiment on SW-620 colon it was 0.271 µM; in the experiment on SF-295 CNS, 1.5 µM; in the experiment with CCRF-CEM leukemia, 0.161 µM; in the experiment on NCI-H522 lung, 0.0392 µM; with MOLT-4 leukemia it was 2.34 µM. In addition, the TGI in the experiment on IGROV1 ovarian amounted to 2.47 µM; with OVCAR-5 ovarian it was 2.85 µM; in the experiment on LOX IMVI melanoma, 0.292 µM; in the experiment on HCT-15 colon, 0.526 µM.
Turning to `c1ccc2c(OCCSCCCCCCCCCCSCCOc3cccc4ccccc34)cccc2c1`, the TGI with UO-31 renal, with SW-620 colon, in the experiment on SF-295 CNS, in the experiment on CCRF-CEM leukemia, in the experiment on NCI-H522 lung and in the experiment with MOLT-4 leukemia was > 100 µM in each case. For the same compound, the TGI with IGROV1 ovarian, in the experiment with OVCAR-5 ovarian, in the experiment on LOX IMVI melanoma and with HCT-15 colon was > 100 µM each time.
